The nature of data set [1]: Chemical stability assessment (relative purity loss by UHPLC-UV). In kind it is physicochemical. Conditions: Chemical stability buffer system A: 20 mM phosphate buffer pH 7.4. The protocol: Purity of a peptide batch was determined through UHPLC/MS prior to chemical stability measurement. The target concentration was […] pure compound. Solutions from solid samples were prepared in the following buffer systems with a concentration of ˜300 μM compound based on the previously determined % purity:
Chemical stability buffer system A) 20 mM phosphate buffer pH 7.4,
Chemical stability buffer system B) 8 mM phosphate buffer pH 7.4, 14 mg/ml propylene glycol, 5.5 mg/ml phenol
Chemical stability buffer system C) 100 mM phosphate buffer pH 7.4, 2.7 mg/ml m-cresol
Prepared solutions were filtered through […] pore size and filled into sterilized glass containers under laminar flow conditions.
Glass containers were stored for 28 days at 5 and 40° C. After this time, the samples were centrifuged for 15 min at 2500 RCF. Then 1.5 μl of the undiluted supernatant were analysed with UHPLC-UV.
The chemical stability was rated through the relative loss of purity calculated by the equation:
[(purity after 28 days at 5° C.)−(purity after 28 days at 40° C.)]/(purity after 28 days at 5° C.)]*100%
The purity is calculated as
[(peak area peptide)/(total peak area)]*100%
The analytical methods used were Analytical UHPLC Method B or C.
Peptide samples were prepared in Chemical stability buffer system A or B and stability was assessed as described in Methods.

The next data set can be described thus: physchem. In kind it is physicochemical. The conditions noted are these: for Soluble amount: 24 h, pH 7.4; for solubility at 24 h: pH 7.4, Soluble amount. The method in brief:
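Peptide at 10 mg/ml (purity-corrected) in 100 mM phosphate pH 7.4, alone or with 2.7 mg/ml m-cresol; 1 h gentle agitation, then 24 h at 5 °C. Supernatant after 15 min at 2500 RCF quantified by UHPLC-UV against reference peptide, adjusted for extinction coefficients.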

For data set [2], the target named is human GLP-1 receptor (hGLP-1R) (Homo sapiens, UniProt P43220). The data set is described as follows: cAMP HTRF assay, HEK-293 cell line over-expressing human GLP-1 receptor. It is filed as cell-based. Conditions: HEK-293, cAMP, 0% HSA. The procedure, abridged: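 Thawed HEK-293 cells over-expressing human GLP-1R (5000 cells/well) in HBSS/20 mM HEPES buffer, with 0.1% HSA where stated, incubated with compound for 30 min at room temperature. Generated cAMP quantified by HTRF.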

The next data set has as its target T1, human GIP receptor (Homo sapiens, UniProt P48546).
T1 construct: human adipocytes endogenously expressing the human GIP receptor; host or cells: human preadipocytes (Lonza) differentiated to adipocytes
T1 sequence (P48546 22-466): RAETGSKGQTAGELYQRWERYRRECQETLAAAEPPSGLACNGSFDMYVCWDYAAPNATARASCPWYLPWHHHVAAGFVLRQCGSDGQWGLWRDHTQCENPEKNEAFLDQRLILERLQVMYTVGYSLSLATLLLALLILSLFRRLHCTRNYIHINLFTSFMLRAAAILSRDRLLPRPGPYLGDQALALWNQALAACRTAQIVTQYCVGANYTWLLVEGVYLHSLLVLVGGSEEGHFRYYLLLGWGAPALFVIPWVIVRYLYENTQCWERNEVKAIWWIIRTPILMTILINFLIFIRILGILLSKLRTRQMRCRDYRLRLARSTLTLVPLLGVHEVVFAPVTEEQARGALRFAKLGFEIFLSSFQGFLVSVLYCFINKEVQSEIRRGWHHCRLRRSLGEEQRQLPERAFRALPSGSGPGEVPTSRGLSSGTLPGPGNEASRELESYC
The data set is described as follows: cAMP HTRF assay in human adipocytes endogenously expressing the human GIP receptor. In kind it is cell-based. The conditions noted are these: for Emax: read-out: hGIPR Emax. On the procedure: For this, one vial of human preadipocytes (˜10^6 cells; Lonza) was thawed in a T-75 cell culture dish.
After 3 days, the cells were washed with PBS and 1.5 ml Trypsin, incubated for 4 min, then resuspended in medium, centrifugated for 10 min @ 300 rcf RT, resuspended again and distributed to four T-75 cell culture dishes.
After 5 days, the cells were washed with PBS and 1.5 ml Trypsin, incubated for 4 min, then resuspended in medium, centrifugated for 10 min @ 300 rcf RT, resuspended again and sawn in T-75 dishes (2.5×10^6 cells per dish) in 15 ml Differentiation medium each.
After 6 days of differentiation, 5000 cells per well were dispensed on a 96-well plate (#CLS3694 from Corning®, Sigma-Aldrich). For measurement of cAMP generation, 25 μL of test compound was added to each well of the 96-well plate, followed by incubation for 30 min at room temperature.
The cAMP generated following test compound stimulation was determined using a kit from Cisbio Corp. based on HTRF (Homogenous Time Resolved Fluorescence). The cAMP assay was performed according to manufacturer's instructions (Cisbio).
The cAMP content of cells was determined using a kit from Cisbio Corp. based on HTRF (Homogenous Time Resolved Fluorescence).

Data set [3] addresses T2, human GIP receptor (hGIPR) (Homo sapiens, UniProt P48546).
T2 sequence (P48546 22-466): T1 sequence (P48546 22-466)
Description: Binding assay, displacement of [125I]GIP from HEK-293 membranes expressing GIPR. Conditions: [125I]GIP displacement. The protocol:
HEK-293 cells recombinantly over-expressing GIPR or GLP-1R were grown to 50% confluency, washed with warm 1×PBS (Gibco) and detached in HEPES/EDTA-buffer (100 mM HEPES pH 7.5, 5 mM EDTA). Cells were harvested by centrifugation at 4° C. and 3000×g and the pellets were stored at −80° C. until further processing.
After thawing on ice, pellets were resuspended in HEPES/EDTA-buffer and homogenized on ice for 1 min using Ultra-Turray T25. After subsequent sonification the cell debris was removed by centrifugation at 1000×g and 4° C. Supernatants were then ultra-centrifuged at 100000×g and 4° C. under vacuum for 30 min. Pellets were resuspended in HEPES/EDTA/NaCl-buffer (20 mM HEPES, 1 mM EDTA, 150 mM NaCl; add 1 Complete Mini Protease inhibitor cocktail to 10 ml buffer) and protein content was determined via BCA-Protein assay.

*1 amine or outer side, *2 acyl side, *3 side chain or, on linkers, in order; H or OH if unused. Where a SMILES comes first, the peptide text is derived from it. Side-chain parts run from the residue outwards. [ ]: non-standard residue; d: D form. The star is where a group is joined. C20 diacid = O=C(O)CCCCCCCCCCCCCCCCCCC(=O)*; C18 diacid = O=C(O)CCCCCCCCCCCCCCCCC(=O)*; γGlu = O=C(O)[C@H](CCC(=O)[*:2])N[*:1]; NMeY = CN[C@@H](Cc1ccc(O)cc1)C(=O)O; AEEA = NCCOCCOCC(=O)O; Aib = CC(C)(N)C(=O)O

Sequence of human GLP-1 receptor (hGLP-1R) (P43220 24-463): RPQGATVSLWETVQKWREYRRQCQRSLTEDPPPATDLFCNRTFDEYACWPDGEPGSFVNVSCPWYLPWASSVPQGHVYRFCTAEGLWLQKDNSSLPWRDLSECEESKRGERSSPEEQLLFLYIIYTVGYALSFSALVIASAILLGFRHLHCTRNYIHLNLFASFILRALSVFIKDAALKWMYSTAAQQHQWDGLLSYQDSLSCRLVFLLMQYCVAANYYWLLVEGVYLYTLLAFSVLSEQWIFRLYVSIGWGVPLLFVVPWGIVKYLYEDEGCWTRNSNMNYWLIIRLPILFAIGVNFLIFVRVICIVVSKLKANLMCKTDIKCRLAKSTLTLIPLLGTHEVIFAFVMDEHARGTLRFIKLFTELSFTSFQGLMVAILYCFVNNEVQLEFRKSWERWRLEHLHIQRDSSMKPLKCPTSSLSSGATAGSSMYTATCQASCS

With `CC[C@H](C)[C@H](NC(=O)[C@H](Cc1ccccc1)NC(=O)[C@H](CCC(=O)O)NC(=O)[C@H](CCC(=O)O)NC(=O)[C@H](CCC(N)=O)NC(=O)[C@H](Cc1c[nH]cn1)NC(=O)[C@@H](NC(=O)[C@H](CCCNC(=N)N)NC(=O)[C@H](CC(=O)O)NC(=O)[C@H](CCCCNC(=O)COCCOCCNC(=O)COCCOCCNC(=O)CC[C@H](NC(=O)CCCCCCCCCCCCCCCCCCC(=O)O)C(=O)O)NC(=O)C(C)(C)NC(=O)[C@@H](NC(=O)[C@H](CO)NC(=O)[C@H](CC(C)C)NC(=O)[C@H](CC(=O)O)NC(=O)[C@H](CO)NC(=O)[C@@H](NC(=O)[C@H](Cc1ccccc1)NC(=O)[C@@H](NC(=O)CNC(=O)[C@H](CCC(=O)O)NC(=O)C(C)(C)NC(=O)[C@@H](N)Cc1ccc(O)cc1)[C@@H](C)O)[C@@H](C)CC)[C@@H](C)CC)[C@@H](C)CC)C(=O)N[C@@H](CCC(=O)O)C(=O)N[C@@H](Cc1c[nH]c2ccccc12)C(=O)N[C@@H](CC(C)C)C(=O)N[C@@H](CC(C)C)C(=O)N[C@@H](C)C(=O)N[C@@H](CCC(N)=O)C(=O)NCC(=O)N1CCC[C@H]1C(=O)N[C@@H](CO)C(=O)N[C@@H](CO)C(=O)NCC(=O)N[C@@H](C)C(=O)N1CCC[C@H]1C(=O)N1CCC[C@H]1C(=O)N1CCC[C@H]1C(=O)N[C@@H](CO)C(N)=O` [SEQ ID NO: 10, H2N-Y-Aib-E-G-T-F-I-S-D-I-S-I-Aib-K[{AEEA}2-gGlu-C20OH]-DRIHQEEFIEWILAQGPSSGAPPPS-NH2] (H-Y[Aib]EGTFISDLSI[Aib]K([AEEA-AEEA-γGlu-C20 diacid])DRIHQEEFIEWLLAQGPSSGAPPPS-NH2), the “Relative purity loss over 28 days at 40° C.” value (shortened to “Relative purity loss”) in data set [1] stood at 3.3%. Moreover, in “physchem”, the Soluble amount was >8.1 mg/mL and the solubility at 24 h was > 8000 µg/mL. Also, the EC50 in data set [2] is > 10 nM. Moreover, at human GIP receptor, the Emax was 127%. Besides, in data set [3], the IC50 turned out to be 0.3 nM.

As to `CC[C@H](C)[C@H](NC(=O)[C@H](CCCNC(=N)N)NC(=O)[C@H](CC(=O)O)NC(=O)[C@H](CCCCNC(=O)COCCOCCNC(=O)COCCOCCNC(=O)CC[C@H](NC(=O)CCCCCCCCCCCCCCCCC(=O)O)C(=O)O)NC(=O)C(C)(C)NC(=O)[C@@H](NC(=O)[C@H](CO)NC(=O)[C@H](CC(C)C)NC(=O)[C@H](CC(=O)O)NC(=O)[C@H](CO)NC(=O)[C@@H](NC(=O)[C@H](Cc1ccccc1)NC(=O)[C@@H](NC(=O)CNC(=O)[C@H](CCC(=O)O)NC(=O)C(C)(C)NC(=O)[C@H](Cc1ccc(O)cc1)NC)[C@@H](C)O)[C@@H](C)CC)[C@@H](C)CC)C(=O)N[C@@H](Cc1c[nH]cn1)C(=O)N[C@@H](CCC(N)=O)C(=O)NC(C)(C)C(=O)N[C@@H](CCC(=O)O)C(=O)N[C@@H](Cc1ccccc1)C(=O)N[C@H](C(=O)N[C@@H](CCC(=O)O)C(=O)N[C@@H](Cc1c[nH]c2ccccc12)C(=O)N[C@@H](CC(C)C)C(=O)N[C@@H](CC(C)C)C(=O)N[C@@H](C)C(=O)N[C@@H](CCC(N)=O)C(=O)NCC(=O)N1CCC[C@H]1C(=O)N[C@@H](CO)C(=O)N[C@@H](CO)C(=O)NCC(=O)N[C@@H](C)C(=O)N1CCC[C@H]1C(=O)N1CCC[C@H]1C(=O)N1CCC[C@H]1C(=O)N[C@@H](CO)C(N)=O)[C@@H](C)CC` [SEQ ID NO: 8, MeHN-Y-Aib-E-G-T-F-I-S-D-I-S-I-Aib-K[{AEEA}2-gGlu-C180H]-D-R-I-H-Q-Aib-E-F--E-W-I-L-A-Q-G-P-S-S-G-A-P-P-P-S-NH2] (H-[NMeY][Aib]EGTFISDLSI[Aib]K([AEEA-AEEA-γGlu-C18 diacid])DRIHQ[Aib]EFIEWLLAQGPSSGAPPPS-NH2), the “Relative purity loss” value in data set [1] is listed as 4.7%. In the data set “physchem”, the Soluble amount is >6.4 mg/mL and the solubility at 24 h was > 7500 µg/mL. Further, in data set [2], the EC50 was > 10 nM. For the same compound, the EC50 on human GIP receptor (read-out: hGIPR EC50) came to 0.5 nM. Also, the Emax at human GIP receptor is 116%. The compound also came in with a half-maximal inhibitory concentration (IC50) in data set [3] of 0.2 nM.

On to `CC[C@H](C)[C@H](NC(=O)[C@H](Cc1ccccc1)NC(=O)[C@H](CCC(=O)O)NC(=O)[C@H](CCC(=O)O)NC(=O)[C@H](CCC(N)=O)NC(=O)[C@H](Cc1c[nH]cn1)NC(=O)[C@@H](NC(=O)[C@H](CCCNC(=N)N)NC(=O)[C@H](CC(=O)O)NC(=O)[C@H](CCCCNC(=O)COCCOCCNC(=O)COCCOCCNC(=O)CC[C@H](NC(=O)CCCCCCCCCCCCCCCCC(=O)O)C(=O)O)NC(=O)C(C)(C)NC(=O)[C@@H](NC(=O)[C@H](CO)NC(=O)[C@H](CC(C)C)NC(=O)[C@H](CC(=O)O)NC(=O)[C@H](CO)NC(=O)[C@@H](NC(=O)[C@H](Cc1ccccc1)NC(=O)[C@@H](NC(=O)CNC(=O)[C@H](CCC(=O)O)NC(=O)C(C)(C)NC(=O)[C@@H](N)Cc1ccc(O)cc1)[C@@H](C)O)[C@@H](C)CC)[C@@H](C)CC)[C@@H](C)CC)C(=O)N[C@@H](CCC(=O)O)C(=O)N[C@@H](Cc1c[nH]c2ccccc12)C(=O)N[C@@H](CC(C)C)C(=O)N[C@@H](CC(C)C)C(=O)N[C@@H](C)C(=O)N[C@@H](CCC(N)=O)C(=O)NCC(=O)N1CCC[C@H]1C(=O)N[C@@H](CO)C(=O)N[C@@H](CO)C(=O)NCC(=O)N[C@@H](C)C(=O)N1CCC[C@H]1C(=O)N1CCC[C@H]1C(=O)N1CCC[C@H]1C(=O)N[C@@H](CO)C(=O)O` [SEQ ID NO: 11, H2N-Y-Aib-E-G-T-F-I-S-D-I-S-I-Aib-K[{AEEA}2-gGlu-C18OH]-DRIHQEEFIEWILAQGPSSGAPPPS-OH] (H-Y[Aib]EGTFISDLSI[Aib]K([AEEA-AEEA-γGlu-C18 diacid])DRIHQEEFIEWLLAQGPSSGAPPPS-OH), for which the “Relative purity loss” value in data set [1] is recorded as 6.1%. In the data set “physchem”, the Soluble amount is >9.8 mg/mL and the solubility at 24 h was > 9800 µg/mL. Further, the EC50 in data set [2] is > 10 nM. For the same compound, the Emax on human GIP receptor was 122%. Further, the IC50 in data set [3] was 0.5 nM.

The values are drawn from patent US20230103631A1, “PEPTIDES AS SELECTIVE GIP RECEPTOR AGONISTS” (Sanofi, priority 2020, published 2023).
